# From patent publication US5356921A, “Imidazolylphenol compounds, pharmaceutical compositions containing them, and processes for preparing such compounds and compositions” (Gruenenthal GmbH, priority 1992, dated 1994)
# Experiments:
# [1] = target: T1, 5-lipoxygenase (Rattus norvegicus, UniProt P12527); assay: Inhibition of 5-lipoxygenase in RBL-1-cells; assay type: cell-based; conditions: 20 μM [14C]-arachidonic acid, 20 μM A 23 187
# T1 construct: endogenous in cells; host or cells: RBL-1 cells (rat basophilic leukemia), intact
# T1 sequence (P12527 1-673): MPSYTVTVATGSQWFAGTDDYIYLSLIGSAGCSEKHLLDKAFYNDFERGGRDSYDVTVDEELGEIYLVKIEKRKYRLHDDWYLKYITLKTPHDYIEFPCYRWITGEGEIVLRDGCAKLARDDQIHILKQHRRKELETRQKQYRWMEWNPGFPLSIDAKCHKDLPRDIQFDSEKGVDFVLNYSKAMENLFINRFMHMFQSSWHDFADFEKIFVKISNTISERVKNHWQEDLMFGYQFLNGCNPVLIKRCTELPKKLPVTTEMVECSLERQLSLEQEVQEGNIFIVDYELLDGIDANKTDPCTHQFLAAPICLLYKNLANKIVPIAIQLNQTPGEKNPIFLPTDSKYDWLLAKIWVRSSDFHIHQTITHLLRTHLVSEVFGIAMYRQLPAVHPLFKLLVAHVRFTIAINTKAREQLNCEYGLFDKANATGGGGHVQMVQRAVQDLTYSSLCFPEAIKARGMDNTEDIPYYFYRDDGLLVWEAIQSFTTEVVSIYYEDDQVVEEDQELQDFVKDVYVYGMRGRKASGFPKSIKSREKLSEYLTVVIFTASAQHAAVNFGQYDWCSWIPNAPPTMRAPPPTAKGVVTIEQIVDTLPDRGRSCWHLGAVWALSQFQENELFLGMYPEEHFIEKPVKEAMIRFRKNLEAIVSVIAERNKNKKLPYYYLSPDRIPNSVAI
# Description: To determine the inhibition of 5-lipoxygenase rat basophilic leukemia cells (RBL-1-cells) were cultured in vitro, harvested by centrifugation, washed with 50 mM potassium phosphate buffer of pH 7.4, and then suspended in this buffer at 1×10^7 cells/mi. To 1 ml each of this suspension there was added indomethacin (10 μM) and calcium chloride (2 mM), and then the mixture was incubated in the absence or presence of a compound according to the invention in a concentration range of from 0.1 μM to 100 μM for 3 minutes and thereafter with 20 μM of [^14 C]-arachidonic acid and 20 μM of the calcium ionophore A 23 187 for 10 minutes. The reaction was stopped by adding 20 μl of glacial acetic acid, and then the mixture was extracted with ethyl acetate to isolate the metabolites of arachidonic acid formed by the enzymatic action of 5-lipoxygenase. These were separated by thin layer chromatography using a solvent mixture known to be suitable for lipoxygenase products [c.f. Jakschik et al., Biochem. Biophys. Res. Commun. 102, 624 (1981)].
# The distribution of the radioactivity among the various metabolites of arachidonic acid was measured using a TLC Linear Analyzer. By correlating the percentages of the amount of the products formed under the action of 5lipoxygenase (5-HETE, isomers of LTB4) in the absence as well as in the presence of different concentrations of compounds according to the invention, the IC50 -values, i.e. the concentrations which cause 50% inhibition of 5-lipoxygenase were determined graphically from semilogarithmic diagrams.
# [2] = test system: 5-lipoxygenase; assay: 5-lipoxygenase inhibition in rat blood after oral administration (ex vivo iLTB4-formation); conditions: male Wistar rats, 21.5 mg/kg oral, one hour after administration, A 23 187 15 μg/ml
# Description: The bioavailability of the compounds of formula I as 5-lipoxygenase inhibitors was characterized by means of an ex vivo biochemical assessment method described by Tateson et al. in Brit. J. Pharmacol. 94, 528 (1988). A compound of formula I was orally administered to male rats (Wistar strain) in a dose of 21.5 mg/kg. One hour after administration the rats after lethal CO2 -narcosis were bled by heart puncture with added heparin as an anticoagulant. Aliquots of the whole blood were incubated at 37° C. for 30 minutes in a water bath with calcium ionophore A 23 187 at an end concentration of 15 μg/ml. At the end of the incubation the samples were centrifuged, and the concentration of immunoreactive LTB4 (iLTB4) in aliquots of […] percent inhibition of ex vivo iLTB4 -formation in whole blood of rats treated with a compound according to the invention, rats orally treated with an appropriate vehicle solution were included in all experiments, and aliquots of their blood were run in parallel and were processed in the same way as described. The average iLTB4 -content of the plasma of the vehicle treated rats served as the 100% value. The activity in percent of the ex vivo iLTB4 -formation after oral administration of a compound according to the invention was calculated by dividing the average value of the iLTB4 -content in ng iLTB4 /ml of the group treated with a compound according to the invention by the average value of the iLTB4 -contents in ng iLTB4 /ml of the vehicle treated group and subsequent multiplication by the factor 100. The respective inhibition in percent was calculated by subtracting the activity in percent from 100.
# [3] = target: T2, thromboxane synthase (Homo sapiens, UniProt P24557); assay: Inhibition of thromboxane synthase (human thrombocytes); assay type: cell-based; conditions: for IC50: human thrombocytes, arachidonic acid 3.5 μM, read-out: IC50-Value, inhibition of thromboxane synthase (TXB2 formation); for inhibitory action on thromboxane synthase: in words
# T2 construct: human thrombocytes were isolated from platelet-rich plasma; endogenous in cells; host or cells: human thrombocytes (platelets), intact
# T2 sequence (P24557 1-533): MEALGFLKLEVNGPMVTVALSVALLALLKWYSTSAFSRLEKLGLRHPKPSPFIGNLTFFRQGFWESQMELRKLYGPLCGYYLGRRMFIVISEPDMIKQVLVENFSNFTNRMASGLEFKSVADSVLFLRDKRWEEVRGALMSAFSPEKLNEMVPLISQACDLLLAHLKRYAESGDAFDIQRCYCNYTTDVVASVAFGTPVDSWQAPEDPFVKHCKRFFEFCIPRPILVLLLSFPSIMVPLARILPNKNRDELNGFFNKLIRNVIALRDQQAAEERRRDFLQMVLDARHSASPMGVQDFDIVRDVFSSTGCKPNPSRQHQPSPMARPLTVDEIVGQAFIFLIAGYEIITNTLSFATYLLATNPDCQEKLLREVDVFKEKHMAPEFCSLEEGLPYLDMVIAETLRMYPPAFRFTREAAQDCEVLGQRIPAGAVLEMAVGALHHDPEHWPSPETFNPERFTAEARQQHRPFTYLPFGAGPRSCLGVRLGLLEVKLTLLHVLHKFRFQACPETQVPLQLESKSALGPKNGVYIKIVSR
# Description: After addition of prostacyclin, human thrombocytes were isolated from platelet-rich plasma and suspended in Tyrode-Hepes buffer of pH 7.4 at 2×10^8 cells/ml. One ml aliquots of cells were incubated either with a compound according to the invention (0.1 to 100 μM) or a solvent (ethanol and/or dimethyl sulfoxide) at 37° C. for 3 minutes and thereafter with radioactively labelled arachidonic acid (3.5 μM) for 5 minutes. The reaction was stopped and the metabolites of arachidonic acid were extracted by adding methanol, chloroform and formic acid. After evaporation of the chloroform-containing layer to dryness under nitrogen, the residue obtained was resuspended in 50 μl chloroform and analyzed by thin layer chromatography. The distribution of the radioactivity of the different metabolites of arachidonic acid was measured using a TLC linear analyzer.
# [4] = target: T1, 5-lipoxygenase; assay: Inhibition of cell-free 5-lipoxygenase from RBL-1-cells; assay type: biochemical; conditions: 10,000×g supernatant of RBL cells; polarographic; arachidonic acid 75 μM
# Description: Cell-free 5-lipoxygenase was polarographically measured from 10,000×gsupernatant of homogenized rat basophilic leucemia cells [M. Haurand and L. Flohe in Biol. Chem. Hoppe-Seyler 369, 133-142 (1988)]. After preincubation of the 10,000×g supernatant with arachidonic acid (75 μM), ATP (adenosine triphosphate; 4 μM), reduced glutathione (4 mM), and either a compound according to the invention (0.1 to 100 μM) or a solvent (ethanol and/or dimethyl sulfoxide) at 35° C. for 5 minutes, the lipoxygenase reaction was initiated by addition of calcium chloride (3 mM) and recorded simultaneously.
# The activity of 5-lipoxygenase was determined from the difference of the pO2 -decrease before and after addition of calcium chloride. The evaluation included the initial rate of the reaction after the lag-phase as well as the duration of the lag-phase. In a concentration range of from 5 to 10 μM the test substances induced lag-phases of 15 seconds.
# [5] = test system: guinea pigs; assay: Allergen-induced bronchoconstriction in guinea pigs (Konzett-Roessler); assay type: in vivo, guinea pig; conditions: 60 minutes before ovalbumin
# Description: The antiasthmatic effect of compounds according to the invention was tested in anesthetized and ventilated guinea pigs. To induce an asthmatic reaction, the animals were passively sensitized by a single intraperitoneal injection of anti-ovalbumin serum. After 48 hours an asthmatic reaction was elicited by intravenous challenge with 0.2 mg/kg of ovalbumin. The immediately resulting bronchoconstriction was measured as an increase in intratracheal pressure. Effects caused by histamine, serotonin and sympathic counterreaction were eliminated by intravenous pretreatment with 2.15 mg/kg of mepyramine, 46.4 μg/kg of propranolol, 4.64 mg/kg of atropine, and 1 mg/kg of methysergide, all administered 5 minutes before challenge. Compounds according to the invention were orally administered 60 minutes before the administration of ovalbumin. The following ED40-values for the inhibition of the bronchoconstriction elicited by ovalbumin, i.e. the effective doses causing a 40% average inhibition of the bronchoconstriction, were determined: […]
# [6] = test system: 5-lipoxygenase; conditions: in words, no test shown; cited from earlier work
Compound,IC50 [1] [µM],IC50 [3] [µM],Inhibition of ex vivo iLTB4-formation in whole blood [2] [%],inhibitory action on thromboxane synthase [3],other results
"NC(=O)N(O)Cc1ccc(OCCn2ccnc2)cc1 [Comparison, N-hydroxy-N-[4-[2-(1H-imidazol-1-yl)ethoxy]phenylmethyl]urea, reference compound]",> 100,4,42,,IC50 [4]: > 100 µM
"NC(=O)N(O)Cc1ccc(Oc2ccc(-n3ccnc3)cc2)o1 [Example 6, N-hydroxy-N-[5-[4-(1H-imidazol-1-yl)phenoxy]furan-2-yl-methyl]urea]",,,84,,
"Cl.O=C(O)c1ccc(OCCn2ccnc2)cc1 [UK 37 248, 4-[2-(1H-imidazol-1-yl)-ethoxy]benzoic acid hydrochloride, reference compound]",,,,inhibits the activity of thromboxane synthase,inhibits the activity of 5-lipoxygenase [6]: not the activity of 5-lipoxygenase
"CC(c1cc2ccccc2s1)N(O)C(N)=O (centres unmarked) [Zileuton (A 64 077), reference compound]",,> 100,,did not exert an inhibitory action on thromboxane synthase,

# Continued, in another order:
IC50 [1] [µM],IC50 [3] [µM],Compound,Inhibition of ex vivo iLTB4-formation in whole blood [2] [%],inhibitory action on thromboxane synthase [3],other results
5,,"NC(=O)N(O)Cc1ccc(Oc2ccc(-n3ccnc3)cc2)cc1 [Example 2, Imidazolium Chloride of N-hydroxy-N-[4-[4-(1H-imidazol-1-yl)phenoxy]phenylmethyl]urea]",,,"Inhibition of ex vivo iLTB4-formation in whole blood ([2]; 21.5 mg/kg): 95%; ED50-Value, inhibition of the bronchoconstriction elicited by ovalbumin ([5]; oral, ED40): 5.1 mg/kg"
3,,"NC(=O)N(O)Cc1ccc(Oc2ccc(-n3ccnc3)cc2)s1 [Example 4, N-hydroxy-N-[5-[4-(1H-imidazol-1-yl)phenoxy]thien-2-yl-methyl]urea]",93,,"ED40 ([5]; Cavia porcellus, po, 1 h, read-out: ED40-Value, inhibition of the bronchoconstriction elicited by ovalbumin): 6.3 mg/kg"
6,2.5,"NC(=O)N(O)Cc1cccc(Oc2ccc(-n3ccnc3)cc2)c1 [Example 5, N-hydroxy-N-[3-[4-(1H-imidazol-1-yl)phenoxy]phenylmethyl]urea]",,same inhibitory potency as the hydrochloride of the imidazolylethoxybenzoic acid UK 37 248,IC50 [4]: 2 µM
2,,"NC(=O)N(O)Cc1ccc(Oc2cccc(-n3ccnc3)c2)cc1 [Example 10, N-hydroxy-N-[4-[3-(1H-imidazol-1-yl)phenoxy]phenylmethyl]urea]",,,
